# Like-named read-outs stand apart in the source and are kept apart here.
# How the values were obtained:
# GRK1, 2, and 5 and PKA = test: Ssel selectivity score calculated from inhibition of GRK1, 2, 5 and PKA
# PKA = target: T1, PKA (Mus musculus, UniProt P05132); test: PKA inhibition assay (ADP-Glo, CREBtide, 100 μM ATP); assay type: biochemical
# T1 construct: His tag (inferred from pET15b vector and Ni-NTA column) (N); host or cells: E. coli Rosetta(DE3)pLysS
# protein kinase A (PKA) = target: T2, protein kinase A (PKA) (Mus musculus, UniProt P05132); test: DSF retest (confirmation), PKA; assay type: binding; conditions: for PKA Tm: 0.2 mg mL^–1 kinase; for PKA ΔTm: relative to intrinsic melting point of the kinase
# T2 construct: His tag (inferred from pET15b vector and Ni-NTA column) (N); host or cells: E. coli Rosetta(DE3)pLysS
# Method: Fourteen compounds (Figure 1a–c), including all GRK2 hits except staurosporine, and the most stabilizing pyrrolopyrimidine-containing compounds were obtained from GSK and retested using DSF on GRKs representing each vertebrate subfamily (GRK1, 2, and 5) (Table 1). […] The ability of these compounds to shift the Tm of the related AGC family kinase member protein kinase A (PKA) was also assessed (Table 1). In no case was ΔTm greater for PKA than for one of the tested GRKs. […]. There was no correlation for GRK1 (Figure 2c).
# DSF was conducted using a ThermoFluor plate reader (Johnson & Johnson) in a buffer containing 20 mM HEPES, pH 7.0, 5 mM MgCl2, 2 mM DTT, and 1 mM CHAPS with 0.2 mg mL^–1 final concentration of GRK or PKA and 100 μM 1-anilinonaphthalene-8-sulfonic acid.[14]
# GRK5 [1] = target: T3, GRK5 (Bos taurus, UniProt P43249); test: DSF retest (confirmation), GRK5; assay type: binding, bovine; conditions: for GRK5 Tm: 0.2 mg mL^–1 kinase; for GRK5 ΔTm: relative to intrinsic melting point of the kinase
# T3 construct: when using full-length kinases as the receptor[37] instead of isolated kinase domains; made in house
# T3 sequence (P43249 whole entry, the tested form may be a part): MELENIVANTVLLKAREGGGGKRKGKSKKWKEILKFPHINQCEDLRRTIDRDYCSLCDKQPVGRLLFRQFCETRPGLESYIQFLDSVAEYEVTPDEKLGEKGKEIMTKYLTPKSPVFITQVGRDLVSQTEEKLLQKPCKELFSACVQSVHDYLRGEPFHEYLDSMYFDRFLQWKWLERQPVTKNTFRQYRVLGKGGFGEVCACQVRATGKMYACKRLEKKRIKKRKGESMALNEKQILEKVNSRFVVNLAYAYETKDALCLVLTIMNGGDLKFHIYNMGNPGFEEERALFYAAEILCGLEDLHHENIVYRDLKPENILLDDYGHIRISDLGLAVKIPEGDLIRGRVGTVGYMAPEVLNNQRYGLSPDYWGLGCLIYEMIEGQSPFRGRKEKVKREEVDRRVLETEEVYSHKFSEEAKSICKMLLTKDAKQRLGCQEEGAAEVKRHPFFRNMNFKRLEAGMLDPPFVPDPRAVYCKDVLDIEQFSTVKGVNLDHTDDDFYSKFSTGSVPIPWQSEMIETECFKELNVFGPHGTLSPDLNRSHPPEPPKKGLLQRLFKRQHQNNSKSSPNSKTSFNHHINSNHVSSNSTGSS
# GRK2 [2] = target: T4, GRK2 (Bos taurus, UniProt P21146, S670A); test: In vitro phosphorylation assay (tubulin, 5 μM ATP), GRK2; assay type: biochemical, bovine; conditions: for IC50: read-out: GRK2 log IC50 (converted)
# T4 construct: made in house
# T4 sequence (P21146 1-689 S670A): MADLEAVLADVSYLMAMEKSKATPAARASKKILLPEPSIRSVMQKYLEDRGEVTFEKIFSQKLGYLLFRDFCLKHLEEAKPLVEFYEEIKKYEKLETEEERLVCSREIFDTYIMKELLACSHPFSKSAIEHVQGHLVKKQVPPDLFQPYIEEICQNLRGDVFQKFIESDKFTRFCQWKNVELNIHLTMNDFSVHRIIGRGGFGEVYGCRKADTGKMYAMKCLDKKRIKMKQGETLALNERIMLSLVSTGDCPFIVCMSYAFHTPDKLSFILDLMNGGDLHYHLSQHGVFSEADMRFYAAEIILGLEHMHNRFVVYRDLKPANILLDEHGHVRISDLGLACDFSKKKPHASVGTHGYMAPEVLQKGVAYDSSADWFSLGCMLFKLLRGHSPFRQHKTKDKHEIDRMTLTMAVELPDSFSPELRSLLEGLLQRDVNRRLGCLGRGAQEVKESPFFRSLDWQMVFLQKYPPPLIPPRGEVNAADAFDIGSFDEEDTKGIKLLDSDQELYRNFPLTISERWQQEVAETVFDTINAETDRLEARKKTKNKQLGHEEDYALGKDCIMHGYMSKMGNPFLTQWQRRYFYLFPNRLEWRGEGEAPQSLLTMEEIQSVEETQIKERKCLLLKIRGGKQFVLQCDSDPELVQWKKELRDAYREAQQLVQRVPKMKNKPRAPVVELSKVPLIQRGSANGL
# GRK2 [3] = target: T5, GRK2 (Homo sapiens, UniProt P25098, S670A); test: DSF retest (confirmation), GRK2; assay type: binding; conditions: for GRK2 Tm: 0.2 mg mL^–1 kinase; for GRK2 ΔTm: relative to intrinsic melting point of the kinase
# T5 construct: made in house
# T5 sequence (P25098 1-689 S670A): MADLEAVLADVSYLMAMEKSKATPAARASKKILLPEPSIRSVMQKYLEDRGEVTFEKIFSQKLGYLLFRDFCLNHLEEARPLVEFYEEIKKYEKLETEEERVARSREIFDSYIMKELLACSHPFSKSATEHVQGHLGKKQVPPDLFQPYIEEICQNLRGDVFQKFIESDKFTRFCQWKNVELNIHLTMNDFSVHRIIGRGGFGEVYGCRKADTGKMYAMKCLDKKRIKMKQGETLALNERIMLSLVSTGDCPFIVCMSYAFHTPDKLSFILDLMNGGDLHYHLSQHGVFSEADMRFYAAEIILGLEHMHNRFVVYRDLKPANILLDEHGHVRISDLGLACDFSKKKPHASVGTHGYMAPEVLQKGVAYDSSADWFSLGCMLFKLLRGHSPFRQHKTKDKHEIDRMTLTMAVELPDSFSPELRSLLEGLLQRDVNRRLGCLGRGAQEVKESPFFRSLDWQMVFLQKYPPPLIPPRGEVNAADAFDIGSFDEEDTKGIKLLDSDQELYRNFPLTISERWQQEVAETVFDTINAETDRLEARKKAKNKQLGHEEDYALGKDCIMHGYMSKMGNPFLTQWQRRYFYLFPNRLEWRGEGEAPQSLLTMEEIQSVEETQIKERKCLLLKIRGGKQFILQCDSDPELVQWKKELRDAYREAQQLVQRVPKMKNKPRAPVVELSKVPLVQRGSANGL
# GRK1 [4] = target: T6, GRK1 (Bos taurus, UniProt P28327); test: In vitro phosphorylation assay (tubulin, 5 μM ATP), GRK1; assay type: biochemical, bovine
# T6 construct: Bovine GRK1_1–535, bovine and human GRK2S670A; made in house
# T6 sequence (P28327 1-535): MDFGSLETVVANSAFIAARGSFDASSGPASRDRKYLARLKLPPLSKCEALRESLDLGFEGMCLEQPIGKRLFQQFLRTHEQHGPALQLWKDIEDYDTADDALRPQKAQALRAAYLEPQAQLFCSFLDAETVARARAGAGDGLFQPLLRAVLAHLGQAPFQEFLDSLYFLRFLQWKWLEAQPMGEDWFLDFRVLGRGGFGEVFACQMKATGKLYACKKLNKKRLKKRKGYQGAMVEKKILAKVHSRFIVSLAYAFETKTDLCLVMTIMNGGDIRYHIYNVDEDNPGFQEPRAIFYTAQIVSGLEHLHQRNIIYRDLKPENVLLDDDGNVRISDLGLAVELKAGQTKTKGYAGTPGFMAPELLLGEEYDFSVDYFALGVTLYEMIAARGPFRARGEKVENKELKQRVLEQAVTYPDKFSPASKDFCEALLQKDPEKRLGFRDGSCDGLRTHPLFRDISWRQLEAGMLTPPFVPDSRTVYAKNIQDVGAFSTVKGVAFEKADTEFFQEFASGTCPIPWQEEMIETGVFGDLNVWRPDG
# human GRK2S670A = target: T7, human GRK2S670A (Homo sapiens, UniProt P25098, S670A); test: Primary DSF (differential scanning fluorimetry) inhibitor screen, GRK2; assay type: binding; conditions: 10 μM compound; for ΔTm at 10 µM: read-out: ΔTm, primary screen, GRK2
# T7 construct: when using full-length kinases as the receptor[37] instead of isolated kinase domains; made in house
# T7 sequence (P25098 1-689 S670A): T5 sequence (P25098 1-689 S670A)
# bovine GRK5 = target: T8, bovine GRK5 (Bos taurus, UniProt P43249); test: Primary DSF inhibitor screen, GRK5; assay type: binding; conditions: 10 μM compound; for ΔTm at 10 µM / ΔTm, primary screen, GRK5: 2 μM kinase, relative to DMSO control; for ΔTm at 10 µM: read-out: ΔTm, primary screen, GRK5; for rank in the primary screen, GRK5: rank ordering of compounds in primary DSF screen
# T8 construct: when using full-length kinases as the receptor[37] instead of isolated kinase domains; made in house
# T8 sequence (P43249 whole entry, the tested form may be a part): as the sequence (P43249 whole entry, the tested form may be a part) above
# 224 kinases = system: 224 kinases; design: method as in ChEMBL database; conditions: ref ChEMBL database; cited from earlier work
# GRK1 [5] = target: T6, GRK1; test: DSF retest (confirmation), GRK1; assay type: binding, bovine; conditions: for GRK1 Tm: 0.2 mg mL^–1 kinase; for GRK1 ΔTm: relative to intrinsic melting point of the kinase
# GRK5 [6] = target: T3, GRK5; test: In vitro phosphorylation assay (tubulin, 5 μM ATP), GRK5; assay type: biochemical, bovine; conditions: for IC50: read-out: GRK5 log IC50 (converted)
# [7] = logarithm of IC50 (−3.3 corresponds to 0.5 mM, footnote c), 438 nM PKA, 100 μM ATP, CREBtide, read-out: PKA log IC50 (converted)
# [8] = selectivity score from inhibition of GRK1, 2, 5 and PKA, <0.5 selective
# [9] = 2 μM kinase, relative to DMSO control
# [10] = read-out: GRK1 log IC50 (converted)
Structure (SMILES),IC50 (PKA; [7]) [µM],PKA Tm (protein kinase A (PKA)) [°C],PKA ΔTm (protein kinase A (PKA)) [°C],GRK5 Tm (GRK5 [1]) [°C],GRK5 ΔTm (GRK5 [1]) [°C],IC50 (GRK2 [2]) [µM],GRK2 Tm (GRK2 [3]) [°C],GRK2 ΔTm (GRK2 [3]) [°C],"Ssel (GRK1, 2, and 5 and PKA; [8])",ΔTm at 10 µM (bovine GRK5) [°C],GRK1 Tm (GRK1 [5]) [°C],GRK1 ΔTm (GRK1 [5]),IC50 (GRK1 [4]; [10]) [µM],GRK1 fold (increase in potency relative to paroxetine) (GRK1 [4]) [fold],"rank in the primary screen, GRK5 (bovine GRK5)",IC50 (GRK5 [6]) [µM],GRK5 fold (increase in potency relative to paroxetine) (GRK5 [6]) [fold],"ΔTm, primary screen, GRK5 (bovine GRK5) [°C]",GRK2 fold (increase in potency relative to paroxetine) (GRK2 [2]) [fold],also measured
Fc1ccc([C@@H]2CCNC[C@H]2COc2ccc3c(c2)OCO3)cc1 [paroxetine],> 501,50.1,4.7,–,–,–,–,–,–,–,–,–,–,–,–,–,–,–,–,"Ssel (GRK1, 2, and 5 and PKA): 0.085"
CCCN1CCC(c2ccc(Nc3nc(Nc4cc(F)ccc4C(N)=O)c4cc[nH]c4n3)c(OC)c2)CC1 [GSK1326255A],> 501,48.5,3.1,29.3,2.5,7.94,42.4,4.9,0.586,6.35,–,–,–,–,–,–,–,–,–,IC50 (GRK1 [4]): 501 µM; ΔTm at 10 µM (human GRK2S670A; [9]): 3.29 °C
CC(C)COC(=O)c1ccc2c(c1)/C(=C/Nc1ccc(S(N)(=O)=O)cc1)C(=O)N2 [GW416981X],> 501,47.7,2.3,28.7,2.0,> 1000,40.4,2.8,0.330,6.71,24.8,4.9 °C,1000,0,15,25.1,5.0,–,–,"inhibition pattern in kinase cross-screening, in words (224 kinases): strong inhibition of many of the 221 kinases evaluated"
COc1cc2c(cc1Nc1nc(Nc3ccsc3C(N)=O)c3cc[nH]c3n1)N(C(=O)CN(C)C)CCC2(C)C [GSK2163632A],> 501,48.5,3.1,33.0,6.3,–,–,–,0.199,9.25,26.3,6.4 °C,0.126,–,4,–,–,9.2,–,–
CC1=C(C(=O)Nc2ccc3[nH]ncc3c2)C(c2ccc(Cl)c(Cl)c2)CC(=O)N1 (stereo not drawn) [GSK299115A],63.1,49.5,4.1,28.1,1.3,3.16,48.3,10.7,0.360,3.55,23.4,3.5 °C,> 1000,–,–,–,1.6,–,0.40,"IC50 (PKA; read-out: IC50 against PKA): < 100 µM; ΔTm, primary screen, GRK2 (human GRK2S670A; [9]): 4.8 °C; ΔTm at 10 µM (human GRK2S670A; [9]): 4.83 °C; rank in the primary screen, GRK2 (human GRK2S670A; rank ordering of compounds in primary DSF screen): 4"
CC1=C(C(=O)Nc2ccc3[nH]ncc3c2)C(c2ccc(F)cc2)NC(=O)N1 (stereo not drawn) [GSK180736A],–,49.2,3.8,–,–,–,–,–,0.022,–,25.3,5.4 °C,> 1000,–,–,–,–,–,–,–
CNC(=O)c1ncccc1Nc1nc(Nc2cc3c(cc2OC)CCCN3C(=O)CN(C)C)nc2[nH]ccc12 [GSK2220400A],> 501,45.4,0.0,30.5,3.8,200,38.8,1.2,0.770,6.87,28.6,8.7 °C,10,40,13,6.31,20,6.9,0.0063,lower potency against GRK1 (GRK1 [4]; relative to GSK2163632A): 100 fold
COc1cc2c(cc1Nc1nc(Nc3ccsc3C(N)=O)c3cc[nH]c3n1)N(C(=O)CN(C)C)CCC2 [GSK2110236A],> 501,46.6,1.2,32.6,5.8,20,40.6,3.0,0.561,8.36,18.5,–1.4 °C,0.631,631,7,3.16,40,8.3,0.063,selectivity for GRK5 over GRK2 (GRK5 [6]; from IC50 values of Table 2): 6 fold
